How the values were obtained:
A375 cells = experiment: Antiproliferative MTT assay; type: cell-based; conditions: Homo sapiens, A-375, 48 h, mean ± S.D. of two experiments
Procedure: (§1) The effect of final target compounds over A375 and SK-MEL-5 was performed using reported procedures (detailed procedure is located in the Supplementary Information page 51s). […]
(§2) Evaluation of the Antiproliferative Activity Against A375 and SK-MEL-5
(§3) A375 and SK-MEL-5 cells were purchased from American Type Culture Collection (ATCC, Ro ckv ille, MD, USA) and maintained in Dulbecco’s modified eagle medium (DMEM, Welgene, Daegu, Republic of Korea) supplemented with 10% fetal bovine serum (FBS, Welgene, Daegu, Republic of Korea) and 1% penicillin/streptomycin (Welgene, Daegu, Republic of Korea) in a hu midified atmo sphere with 5% CO2 at 37 °C. Both cells were taken from culture substrate with 0.05% trypsin-0.02% EDTA and plated at a density of 5 × 10^3 cells/well in 96 well plates and then incubated at 37 °C fo r 24 h in a hu midified atmo sphere with 5% CO2 prior to treatment with various concentrations (3-fold serial dilution, 12 points) of the tested compounds. The cells were incubated for 48 h after treatment with the test compounds. The cell viability was assessed by the conventional 3-(4,5-dimethylthiazol-2-yl)-2,5-diphenyltetrazolium bromide (MTT) reduction assay. MTT assays were carried out with CellTiter 96® (Promega) according to the manufacturer’s instructions. The absorbance at 590 nm was recorded using EnVision 2103 (Perkin Elmer; Bo ston , MA, USA). The IC50 values were calculated using GraphPad Prism 4.0

SK-MEL-5 cells = experiment: Antiproliferative MTT assay; type: cell-based; conditions: Homo sapiens, 48 h, mean ± S.D. of two experiments
Procedure: as §1, §2, §3

In the case of CNC(=O)c1cc(Oc2ccc(NC(=O)Nc3ccc(Cl)c(C(F)(F)F)c3)cc2)ccn1 [Sorafenib, reference compound], the IC50 (A375 cells) is reported as 5.25 ± 0.74 µM and the IC50 (SK-MEL-5 cells) is reported as 9.22 ± 0.81 µM.
